Reference: patent US8017612B2, “Piperazine compound and use thereof as a HCV polymerase inhibitor” (priority 2006, dated 2011)

Key:
[1] = molecular target: T1, HCV polymerase (NS5B) type 1a (Hepatitis C virus genotype 1a, UniProt P26664); experiment: Assay of enzyme (HCV polymerase) inhibitory activity, type 1a enzyme; format: biochemical, HCV type 1a (cloned from the blood of patients); conditions: HCV polymerase inhibitory activity (IC50), 1a, type 1a enzyme 1.5 μg/ml, 25° C., 60 min
T1 construct: made in house; host or cells: Escherichia coli (by the 'similar method' of the 1b enzyme)
Method in brief: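 His-tagged NS5B, C-terminal 47 residues deleted, type 1a at 1.5 μg/ml, with 5 μg/ml HCV 3′UTR substrate RNA, 50 μM ATP/GTP/CTP, 2 μM UTP plus [3H]UTP, pH 7.5 Tris, 5 mM MgCl2; 60 min at 25° C. TCA-precipitated RNA counted by scintillation; IC50 from radioactivity with vs. without compound.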

[2] = molecular target: T2, HCV polymerase (NS5B) type 1b (Hepatitis C virus genotype 1b, UniProt P26663); experiment: Assay of enzyme (HCV polymerase) inhibitory activity, type 1b enzyme; format: biochemical, HCV BK strain (type 1b); conditions: HCV polymerase inhibitory activity (IC50), 1b, type 1b enzyme 0.5 μg/ml, 25° C., 60 min
T2 construct: a region encoding NS5B (J Virol 1991 March, 65(3), 1105-13, 544 amino acids after deletion of 47 amino acids on the C-terminal); 6xHis (C); made in house; host or cells: Escherichia coli
Method in brief: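 His-tagged, C-terminally truncated NS5B (BK strain, 1b; 0.5 μg/ml) incubated with compound 60 min at 25 °C on 3′UTR-derived substrate RNA (5 μg/ml), 50 μM ATP/GTP/CTP, 2 μM UTP plus [3H]UTP, pH 7.5. Acid-precipitated RNA counted; IC50 from radioactivity with and without compound.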

CCCc1ccc(CNC(=O)[C@H]2CN(C(=O)Cn3nnc(CC(=O)O)n3)CCN2S(=O)(=O)c2ccc(OC(F)(F)F)cc2)cc1 [Example 465, (2-{2-oxo-2-[(R)-3-(4-propyl-benzylcarbamoyl)-4-(4-trifluoromethoxy-benzenesulfonyl)-piperazin-1-yl]-ethyl}-2H-tetrazol-5-yl)-acetic acid]
IC50 [1]: < 100 nM
IC50 [2]: < 100 nM

CCOC(=O)Cc1nnn(CC(=O)N2CCN(S(=O)(=O)c3ccc(OC(F)(F)F)cc3)[C@@H](C(=O)NCc3ccc(C(F)(F)CC)cc3)C2)n1 [Example 466, (2-{2-[(R)-3-[4-(1,1-difluoro-propyl)-benzylcarbamoyl]-4-(4-trifluoromethoxy-benzenesulfonyl)-piperazin-1-yl]-2-oxo-ethyl}-2H-tetrazol-5-yl)-acetic acid ethyl ester]
IC50 [1]: < 100 nM
IC50 [2]: < 100 nM

CCC(F)(F)c1ccc(CNC(=O)[C@H]2CN(C(=O)Cn3nnnc3C)CCN2S(=O)(=O)c2ccc(OC(F)(F)F)cc2)cc1 [Example 467, (R)-4-[2-(5-methyl-tetrazol-1-yl)-acetyl]-1-(4-trifluoromethoxy-benzenesulfonyl)-piperazine-2-carboxylic acid 4-(1,1-difluoro-propyl)-benzylamide]
IC50 [1]: < 100 nM
IC50 [2]: 100 to 1000 nM

CCC(F)(F)c1ccc(CNC(=O)[C@H]2CN(C(=O)Cn3nnc(C)n3)CCN2S(=O)(=O)c2ccc(OC(F)(F)F)cc2)cc1 [Example 468, (R)-4-[2-(5-methyl-tetrazol-2-yl)-acetyl]-1-(4-trifluoromethoxy-benzenesulfonyl)-piperazine-2-carboxylic acid 4-(1,1-difluoro-propyl)-benzylamide]
IC50 [1]: < 100 nM
IC50 [2]: < 100 nM

CC(=O)N1CCN(S(=O)(=O)c2ccc(Br)c(F)c2)[C@@H](C(=O)NCc2ccc(C(C)C)cc2)C1 [Example 469, (R)-4-acetyl-1-(4-bromo-3-fluoro-benzenesulfonyl)-piperazine-2-carboxylic acid 4-isopropyl-benzylamide]
IC50 [1]: 100 to 1000 nM
IC50 [2]: 100 to 1000 nM

CCCc1ccc(CNC(=O)[C@H]2CN(C(=O)Nc3nc(CC(=O)OCC)cs3)CCN2S(=O)(=O)c2ccc(OC(F)(F)F)cc2)cc1 [Example 470, (2-{[(R)-3-(4-propyl-benzylcarbamoyl)-4-(4-trifluoromethoxy-benzenesulfonyl)-piperazine-1-carbonyl]-amino}-thiazol-4-yl)-acetic acid ethyl ester]
IC50 [1]: 100 to 1000 nM
IC50 [2]: 100 to 1000 nM

CC(C)c1ccc(CNC(=O)[C@H]2CN(c3cnc(N)cn3)CCN2S(=O)(=O)c2ccc(C(F)(F)F)cc2)cc1 [Example 471, (R)-5′-amino-4-(4-trifluoromethyl-benzenesulfonyl)-3,4,5,6-tetrahydro-2H-[1,2′]bipyrazinyl-3-carboxylic acid 4-isopropyl-benzylamide]
IC50 [1]: 100 to 1000 nM
IC50 [2]: < 100 nM

CCCc1ccc(CNC(=O)[C@H]2CN(c3cnccn3)CCN2S(=O)(=O)c2ccc(OC(F)(F)F)cc2)cc1 [Example 472, (R)-4-(4-trifluoromethoxy-benzenesulfonyl)-3,4,5,6-tetrahydro-2H-[1,2′]bipyrazinyl-3-carboxylic acid 4-propyl-benzylamide]
IC50 [1]: < 100 nM
IC50 [2]: < 100 nM

COCc1ccc(CNC(=O)[C@H]2CN(c3cnc(C(=O)O)cn3)CCN2S(=O)(=O)c2ccc(OC(F)(F)F)cc2)cc1 [Example 473, (R)-3-(4-methoxymethyl-benzylcarbamoyl)-4-(4-trifluoromethoxy-benzenesulfonyl)-3,4,5,6-tetrahydro-2H-[1,2′]bipyrazinyl-5′-carboxylic acid]
IC50 [1]: < 100 nM
IC50 [2]: < 100 nM

CCCc1ccc(CNC(=O)[C@H]2CN(c3cnc(C(=O)O)cn3)CCN2S(=O)(=O)c2ccc(OC(F)(F)F)cc2)c(Cl)c1 [Example 474, (R)-3-(2-chloro-4-propyl-benzylcarbamoyl)-4-(4-trifluoromethoxy-benzenesulfonyl)-3,4,5,6-tetrahydro-2H-[1,2′]bipyrazinyl-5′-carboxylic acid]
IC50 [1]: < 100 nM
IC50 [2]: < 100 nM

CCCc1ccc(CNC(=O)[C@H]2CN(C(=O)Nc3nc(CC(=O)N4CCOCC4)cs3)CCN2S(=O)(=O)c2ccc(OC(F)(F)F)cc2)cc1 [Example 475, (R)-4-(4-trifluoromethoxy-benzenesulfonyl)-piperazine-1,3-dicarboxylic acid 1-{[4-(2-morpholin-4-yl-2-oxo-ethyl)-thiazol-2-yl]-amide} 3-(4-propyl-benzylamide)]
IC50 [1]: 100 to 1000 nM
IC50 [2]: < 100 nM

CCCc1ccc(CNC(=O)[C@H]2CN(C(=O)Nc3nc(CCO)cs3)CCN2S(=O)(=O)c2ccc(OC(F)(F)F)cc2)cc1 [Example 476, (R)-4-(4-trifluoromethoxy-benzenesulfonyl)-piperazine-1,3-dicarboxylic acid 1-{[4-(2-hydroxy-ethyl)-thiazol-2-yl]-amide} 3-(4-propyl-benzylamide)]
IC50 [1]: 100 to 1000 nM
IC50 [2]: 100 to 1000 nM

CCOC(=O)c1nnc(NC(=O)N2CCN(S(=O)(=O)c3ccc(OC(F)(F)F)cc3)[C@@H](C(=O)NCc3ccc(C(F)(F)CC)cc3)C2)s1 [Example 477, 5-{[(R)-3-[4-(1,1-difluoro-propyl)-benzylcarbamoyl]-4-(4-trifluoromethoxy-benzenesulfonyl)-piperazine-1-carbonyl]-amino}-[1,3,4]thiadiazole-2-carboxylic acid ethyl ester]
IC50 [1]: > 1000 nM
IC50 [2]: > 1000 nM

CCCc1ccc(CNC(=O)[C@H]2CN(c3cnc(CO)cn3)CCN2S(=O)(=O)c2ccc(CC)cc2)cc1 [Example 478, (R)-4-(4-ethyl-benzenesulfonyl)-5′-hydroxymethyl-3,4,5,6-tetrahydro-2H-[1,2′]bipyrazinyl-3-carboxylic acid 4-propyl-benzylamide]
IC50 [1]: < 100 nM
IC50 [2]: < 100 nM

CCC(F)(F)c1ccc(CNC(=O)[C@H]2CN(C(=O)Cn3nnc(-c4ccccc4)n3)CCN2S(=O)(=O)c2ccc(OC(F)(F)F)cc2)cc1 [Example 479, (R)-4-[2-(5-phenyl-tetrazol-2-yl)-acetyl]-1-(4-trifluoromethoxy-benzenesulfonyl)-piperazine-2-carboxylic acid 4-(1,1-difluoro-propyl)-benzylamide]
IC50 [1]: < 100 nM
IC50 [2]: < 100 nM

CCC(F)(F)c1ccc(CNC(=O)[C@H]2CN(C(=O)Cc3cc(C)no3)CCN2S(=O)(=O)c2ccc(OC(F)(F)F)cc2)cc1 [Example 480, (R)-4-[2-(3-methyl-isoxazol-5-yl)-acetyl]-1-(4-trifluoromethoxy-benzenesulfonyl)-piperazine-2-carboxylic acid 4-(1,1-difluoro-propyl)-benzylamide]
IC50 [1]: < 100 nM
IC50 [2]: < 100 nM

CC(=O)N1CCN(S(=O)(=O)c2ccc(C(C)C)cc2)[C@@H](C(=O)NCc2ccc(-c3ccoc3)cc2)C1 [Example 481, (R)-4-acetyl-1-(4-isopropyl-benzenesulfonyl)-piperazine-2-carboxylic acid 4-furan-3-yl-benzylamide]
IC50 [1]: 100 to 1000 nM
IC50 [2]: 100 to 1000 nM

CCC(F)(F)c1ccc(CNC(=O)[C@H]2CN(C(=O)Nc3nnc(CO)s3)CCN2S(=O)(=O)c2ccc(OC(F)(F)F)cc2)cc1 [Example 482, (R)-4-(4-trifluoromethoxy-benzenesulfonyl)-piperazine-1,3-dicarboxylic acid 3-[4-(1,1-difluoro-propyl)-benzylamide] 1-[(5-hydroxymethyl-[1,3,4]thiadiazol-2-yl)-amide]]
IC50 [1]: 100 to 1000 nM
IC50 [2]: < 100 nM

CCC(F)(F)c1ccc(CNC(=O)[C@H]2CN(C(=O)Nc3nnc(C(C)=O)s3)CCN2S(=O)(=O)c2ccc(OC(F)(F)F)cc2)cc1 [Example 483, (R)-4-(4-trifluoromethoxy-benzenesulfonyl)-piperazine-1,3-dicarboxylic acid 1-[(5-acetyl-[1,3,4]thiadiazol-2-yl)-amide] 3-[4-(1,1-difluoro-propyl)-benzylamide]]
IC50 [1]: > 1000 nM
IC50 [2]: > 1000 nM

CCC(F)(F)c1ccc(CNC(=O)[C@H]2CN(C(=O)Nc3nnc(C(C)(C)O)s3)CCN2S(=O)(=O)c2ccc(OC(F)(F)F)cc2)cc1 [Example 484, (R)-4-(4-trifluoromethoxy-benzenesulfonyl)-piperazine-1,3-dicarboxylic acid 3-[4-(1,1-difluoro-propyl)-benzylamide] 1-{[5-(1-hydroxy-1-methyl-ethyl)-[1,3,4]thiadiazol-2-yl]-amide}]
IC50 [1]: 100 to 1000 nM
IC50 [2]: < 100 nM

CCCc1ccc(CNC(=O)[C@H]2CN(c3cnc(C(=O)O)cn3)CCN2S(=O)(=O)c2ccc(CC)cc2)c(Cl)c1 [Example 485, (R)-3-(2-chloro-4-propyl-benzylcarbamoyl)-4-(4-ethyl-benzenesulfonyl)-3,4,5,6-tetrahydro-2H-[1,2′]bipyrazinyl-5′-carboxylic acid]
IC50 [1]: < 100 nM
IC50 [2]: < 100 nM

CCCc1ccc(CNC(=O)[C@H]2CN(c3cc(C)c(C(=O)OC)nn3)CCN2S(=O)(=O)c2ccc(OC(F)(F)F)cc2)cc1 [Example 486, 4-methyl-6-[(R)-3-(4-propyl-benzylcarbamoyl)-4-(4-trifluoromethoxy-benzenesulfonyl)-piperazin-1-yl]-pyridazine-3-carboxylic acid methyl ester]
IC50 [1]: < 100 nM
IC50 [2]: < 100 nM
